Values quoted from earlier work, collected in publication PMC3290704 (Journal of the American Chemical Society, 2012).

Tests used:
TAZ2 from p300 = conditions: NMR structure of complex
TAZ2 = conditions: fluorescence titrations

Substance | TAZ2 residues in direct hydrophobic contact with p53 (TAZ2 from p300) | p53 residues forming an α-helix upon binding (TAZ2 from p300) | Kd (TAZ2) [nM]
p53(2–39): p53(2–39) peptide in NMR structure with TAZ2 from p300 | Val1802, Leu1823, and Leu1826 of TAZ2 have direct hydrophobic contacts with p53 | residues 17 ~ 24 of the p53 AD1 subdomain form an α-helix upon binding | 
p53(13–61): p53(13–61), literature TAZ2 binder by fluorescence titration |  |  | 10 to 20
